The target of the experiment is T1, Dihydropteroate synthase (Escherichia coli K-12, UniProt P0AC13).
T1 sequence (P0AC13 whole entry): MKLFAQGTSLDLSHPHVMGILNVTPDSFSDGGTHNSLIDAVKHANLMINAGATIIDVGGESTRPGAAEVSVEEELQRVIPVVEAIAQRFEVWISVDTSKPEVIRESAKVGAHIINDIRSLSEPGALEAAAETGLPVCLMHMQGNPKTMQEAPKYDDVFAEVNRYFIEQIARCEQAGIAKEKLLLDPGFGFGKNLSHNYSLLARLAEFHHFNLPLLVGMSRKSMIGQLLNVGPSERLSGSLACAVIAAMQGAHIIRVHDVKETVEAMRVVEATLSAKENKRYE
In words: In vitro concentration required to inhibit partially purified dihydropteroate synthase of Escherichia coli by 50%. It counts as functional. Conditions: read-out: I50.

For the compound `COc1ccc(OCCCNc2nc(N)nc(O)c2N=O)cc1`, the IC50 is 7300 nM.

Turning to `Cc1ccc(S(=O)(=O)Nc2ccc(OCCCNc3nc(N)nc(O)c3N=O)cc2)cc1`, the IC50 came to 600 nM.

With `CS(=O)(=O)c1ccc(OCCCNc2nc(N)nc(O)c2N=O)cc1`, the IC50 came to 2500 nM.

Consider `CCCCOc1ccc(OCCCNc2nc(N)nc(O)c2N=O)cc1`, for which the IC50 was found to be 2100 nM.

With `Nc1nc(O)c(N=O)c(NCCCOc2ccc(C(F)(F)F)cc2)n1`, the IC50 turned out to be 1400 nM.

With `CCOC(=O)c1ccc(OCCCNc2nc(N)nc(O)c2N=O)cc1`, the IC50 worked out at 2900 nM.

On to `Nc1nc(O)c(N=O)c(NCCCOc2ccc([N+](=O)[O-])cc2)n1`, for which the IC50 came to 1000 nM.

On to `COc1cc(OC)cc(OCCCNc2nc(N)nc(O)c2N=O)c1`, for which the IC50 amounted to 700 nM.

Consider `Nc1nc(O)c(N=O)c(NCCCOc2ccc(O)cc2)n1`, for which the IC50 turned out to be 2200 nM.

Consider `CCOC(=O)c1ccc(NCCCCNc2nc(N)nc(O)c2N=O)cc1`, for which the IC50 was 3000 nM.

Turning to `Nc1nc(O)c(N=O)c(NCCCNc2ccc(C(=O)O)cc2)n1`, the IC50 was 8900 nM.

For `Nc1nc(NCCCOc2ccc(C(=O)O)cc2)c(N=O)c(=O)[nH]1`, the IC50 is 6600 nM.

`Nc1nc(O)c(N=O)c(NCCCOc2ccc(OCc3ccccc3)cc2)n1`: the IC50 came out at 3000 nM.

Regarding `COc1cc(OCCCNc2nc(N)nc(O)c2N=O)cc(OC)c1OC`, the IC50 is 2000 nM.

Take `Nc1nc(O)c(N=O)c(NCCCOc2ccccc2OCc2ccccc2)n1`: the IC50 stood at 18000 nM.

Consider `Nc1nc(O)c(N=O)c(NCCCOc2cc(Cl)cc(Cl)c2)n1`, for which the IC50 turned out to be 1400 nM.

For `Nc1nc(O)c(N=O)c(NCCCCNc2ccc(C(=O)O)cc2)n1`, the IC50 amounted to 2500 nM.

In the case of `Nc1nc(O)c(N=O)c(NCCCOc2ccc(Cl)cc2)n1`, the IC50 was 1000 nM.

The values are drawn from ChEMBL document CHEMBL1123172, “Inhibitors of dihydropteroate synthase: substituent effects in the side-chain aromatic ring of 6-[[3-(aryloxy)propyl]amino]-5-nitrosoisocytosines and synthesis and inhibitory potency of bridged 5-nitrosoisocytosine-p-aminobenzoic acid analogues” (J Med Chem, 1986).
